Measured values from patent US20210215714A1, “COMPLEMENT ALTERNATIVE PATHWAY-ASSOCIATED NEPHROPATHY BIOMARKERS” (Achillion Pharmaceuticals, Inc., priority 2018, published 2021).

Tests used:
[1] = Phase 2a study in C3G / IC-MPGN patients: urine albumin-to-creatinine ratio (ACR); details: for ACR GEOMEAN / ACR MEAN: patients A-F;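 on all read-outs here: urine samples from C3G or IC-MPGN patients read by central lab dipstick on automated urine chemistry analyzer, ratio computed from albumin and creatinine pad absorbance, healthy volunteer urine as control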
Description: 10 patients with either C3 Glomerulopathy (C3G) or Immune-Complex Membranoproliferative Glomerulonephritis (IC-MPGN) are to be enrolled across two dose groups. […] Inclusion criteria include a clinical diagnosis of C3G (C3 glomerulonephritis [C3GN] or dense deposit disease [DDD], the 2 types of C3G) or idiopathic immune-complex membranoproliferative glomerulonephritis (IC-MPGN) by renal biopsy for at least 3 months prior to dosing, with the pathologic diagnosis verified by review of the renal biopsy by the study central pathologist. Patients must have low C3 levels (<50% of the lower limit of normal) and normal or near-normal C4 levels (>90% of the lower limit of normal). Group 1 has enrolled 2 out of 2 planned patients and Group 2 has enrolled 4 out of 8 planned patients.
Albumin and creatinine levels were measured in urine samples by a central reference lab using a urine dipstick method. Urine from non-study healthy volunteers served as control samples. An automatic urinary chemical analyzer was used with a dye for the detection of albumin at >8 mg/dL. Also present on the dipstick was a pad for detection of creatinine that uses the peroxidase activity of the copper-creatinine complex. The ACR ratio was automatically calculated by the analyzer based on the light absorbent readings of the albumin and creatinine test pads.

[2] = system: C4; assay: Phase 2a study: C4 levels in serum; format: in vivo, human; details: 14-day treatment, patients A-F
Protocol: Systemic complement proteins were measured in serum and plasma including serum Ba, plasma Bb, serum C3, serum Factor D, serum C4, and % Fragment C3.
C4 levels in serum were measured using a quantitative sandwich enzyme immunoassay technique. A monoclonal antibody specific for human C4 was pre-coated onto a micro-assay plate. Standards and samples were pipetted into the wells and any C4 present was bound by the immobilized antibody. After washing away any unbound substances, an enzyme-linked polyclonal antibody specific for human C4 was added to the wells. Following a wash to remove any unbound antibody-enzyme reagent, a substrate solution was added to the wells and color develops in proportion to the amount of C4 bound in the initial step. The color development was stopped and the intensity of the color was measured spectrophotometrically at 450 nm.

CC(=O)c1nn(CC(=O)N2C[C@H](F)C[C@H]2C(=O)Nc2cccc(Br)n2)c2ccc(-c3cnc(C)nc3)cc12 [Compound 1, (2S,4R)-1-(2-(3-acetyl-5-(2-methylpyrimidin-5-yl)-1H-indazol-1-yl)acetyl)-N-(6-bromopyridin-2-yl)-4-fluoropyrrolidine-2-carboxamide]
ACR ([1]; Patient A, 100 mg TID, Day 1/0 Hour): 259 mg/mmol
ACR ([1]; Patient A, 100 mg TID, Day 4): 218 mg/mmol
ACR ([1]; Patient A, 100 mg TID, Day 7/0 Hour): 233 mg/mmol
ACR ([1]; Patient A, 100 mg TID, Day 10): 228 mg/mmol
ACR ([1]; Patient A, 100 mg TID, Day 14): 175 mg/mmol
ACR ([1]; Patient A, 100 mg TID, Day 15 Taper): 144 mg/mmol
ACR ([1]; Patient A, 100 mg TID, Day 16 Taper): 143 mg/mmol
ACR ([1]; Patient A, 100 mg TID, Day 17 Taper): 115 mg/mmol
ACR ([1]; Patient A, 100 mg TID, Day 21 Taper): 140 mg/mmol
ACR ([1]; Patient A, 100 mg TID, Follow-Up Day 24): 138 mg/mmol
ACR ([1]; Patient A, 100 mg TID, Follow-Up Day 28): 132 mg/mmol
ACR ([1]; Patient A, 100 mg TID, Follow-Up Day 35): 160 mg/mmol
ACR ([1]; Patient A, 100 mg TID, Follow-Up Day 49): 147 mg/mmol
ACR ([1]; Patient A, 100 mg TID, Screen): 228 mg/mmol
ACR ([1]; Patient B, 100 mg TID, Day 1/0 Hour): 580 mg/mmol
ACR ([1]; Patient B, 100 mg TID, Day 4): 264 mg/mmol
ACR ([1]; Patient B, 100 mg TID, Day 7/0 Hour): 249 mg/mmol
ACR ([1]; Patient B, 100 mg TID, Day 10): 253 mg/mmol
ACR ([1]; Patient B, 100 mg TID, Day 14): 343 mg/mmol
ACR ([1]; Patient B, 100 mg TID, Day 15 Taper): 325 mg/mmol
ACR ([1]; Patient B, 100 mg TID, Day 16 Taper): 329 mg/mmol
ACR ([1]; Patient B, 100 mg TID, Day 17 Taper): 263 mg/mmol
ACR ([1]; Patient B, 100 mg TID, Day 21 Taper): 373 mg/mmol
ACR ([1]; Patient B, 100 mg TID, Follow-Up Day 24): 469 mg/mmol
ACR ([1]; Patient B, 100 mg TID, Follow-Up Day 28): 381 mg/mmol
ACR ([1]; Patient B, 100 mg TID, Follow-Up Day 49): 140 mg/mmol
ACR ([1]; Patient B, 100 mg TID, Screen): 486 mg/mmol
ACR ([1]; Patient C, 200 mg TID, Day 1/0 Hour): 58 mg/mmol
ACR ([1]; Patient C, 200 mg TID, Day 4): 27 mg/mmol
ACR ([1]; Patient C, 200 mg TID, Day 7/0 Hour): 22 mg/mmol
ACR ([1]; Patient C, 200 mg TID, Day 10): 35 mg/mmol
ACR ([1]; Patient C, 200 mg TID, Day 14): 30 mg/mmol
ACR ([1]; Patient C, 200 mg TID, Day 15 Taper): 44 mg/mmol
ACR ([1]; Patient C, 200 mg TID, Day 16 Taper): 26 mg/mmol
ACR ([1]; Patient C, 200 mg TID, Day 17 Taper): 32 mg/mmol
ACR ([1]; Patient C, 200 mg TID, Day 21 Taper): 23 mg/mmol
ACR ([1]; Patient C, 200 mg TID, Follow-Up Day 24): 32 mg/mmol
ACR ([1]; Patient C, 200 mg TID, Follow-Up Day 28): 47 mg/mmol
ACR ([1]; Patient C, 200 mg TID, Follow-Up Day 49): 20 mg/mmol
ACR ([1]; Patient C, 200 mg TID, Screen): 44 mg/mmol
ACR ([1]; Patient C, 200 mg TID, Screen 1): 128 mg/mmol
ACR ([1]; Patient D, 200 mg TID, Day 1/0 Hour): 224 mg/mmol
ACR ([1]; Patient D, 200 mg TID, Day 4): 279 mg/mmol
ACR ([1]; Patient D, 200 mg TID, Day 7/0 Hour): 322 mg/mmol
ACR ([1]; Patient D, 200 mg TID, Day 10): 648 mg/mmol
ACR ([1]; Patient D, 200 mg TID, Day 14): 286 mg/mmol
ACR ([1]; Patient D, 200 mg TID, Day 15 Taper): 328 mg/mmol
ACR ([1]; Patient D, 200 mg TID, Day 17 Taper): 586 mg/mmol
ACR ([1]; Patient D, 200 mg TID, Day 21 Taper): 564 mg/mmol
ACR ([1]; Patient D, 200 mg TID, Follow-Up Day 24): 282 mg/mmol
ACR ([1]; Patient D, 200 mg TID, Follow-Up Day 28): 577 mg/mmol
ACR ([1]; Patient D, 200 mg TID, Follow-Up Day 35): 398 mg/mmol
ACR ([1]; Patient D, 200 mg TID, Follow-Up Day 49): 636 mg/mmol
ACR ([1]; Patient D, 200 mg TID, Screen): 579 mg/mmol
ACR ([1]; Patient D, 200 mg TID, Screen 1): 160 mg/mmol
ACR ([1]; Patient E, 200 mg TID, Day 1/0 Hour): 424 mg/mmol
ACR ([1]; Patient E, 200 mg TID, Day 4): 418 mg/mmol
ACR ([1]; Patient E, 200 mg TID, Day 7/0 Hour): 533 mg/mmol
ACR ([1]; Patient E, 200 mg TID, Day 10): 625 mg/mmol
ACR ([1]; Patient E, 200 mg TID, Day 14): 264 mg/mmol
ACR ([1]; Patient E, 200 mg TID, Day 15 Taper): 327 mg/mmol
ACR ([1]; Patient E, 200 mg TID, Day 16 Taper): 277 mg/mmol
ACR ([1]; Patient E, 200 mg TID, Day 17 Taper): 475 mg/mmol
ACR ([1]; Patient E, 200 mg TID, Day 21 Taper): 257 mg/mmol
ACR ([1]; Patient E, 200 mg TID, Follow-Up Day 24): 303 mg/mmol
ACR ([1]; Patient E, 200 mg TID, Follow-Up Day 28): 307 mg/mmol
ACR ([1]; Patient E, 200 mg TID, Follow-Up Day 49): 327 mg/mmol
ACR ([1]; Patient F, 200 mg TID, Day 4): 152 mg/mmol
ACR ([1]; Patient F, 200 mg TID, Day 7/0 Hour): 94 mg/mmol
ACR ([1]; Patient F, 200 mg TID, Day 14): 184 mg/mmol
ACR ([1]; Patient F, 200 mg TID, Day 15 Taper): 720 mg/mmol
ACR ([1]; Patient F, 200 mg TID, Day 16 Taper): 235 mg/mmol
ACR ([1]; Patient F, 200 mg TID, Day 17 Taper): 475 mg/mmol
ACR ([1]; Patient F, 200 mg TID, Day 21 Taper): 348 mg/mmol
ACR ([1]; Patient F, 200 mg TID, Follow-Up Day 24): 279 mg/mmol
ACR ([1]; Patient F, 200 mg TID, Follow-Up Day 28): 253 mg/mmol
ACR ([1]; Patient F, 200 mg TID, Follow-Up Day 35): 168 mg/mmol
ACR ([1]; Patient F, 200 mg TID, Follow-Up Day 49): 564 mg/mmol
ACR ([1]; Patient F, 200 mg TID, Screen): 308 mg/mmol
reductions in ACR ([1]; Patients A, B, C, E, and F, two-week treatment): approximately 50%
ACR GEOMEAN ([1]; Day 1/0 Hour): 249.6 mg/mmol
ACR MEAN ([1]; Day 1/0 Hour): 306.4 mg/mmol
ACR GEOMEAN ([1]; Day 4): 174.0 mg/mmol
ACR MEAN ([1]; Day 4): 226.3 mg/mmol
ACR GEOMEAN ([1]; Day 7/0 Hour): 164.9 mg/mmol
ACR MEAN ([1]; Day 7/0 Hour): 242.1 mg/mmol
ACR GEOMEAN ([1]; Day 14): 171.4 mg/mmol
ACR MEAN ([1]; Day 14): 213.8 mg/mmol
ACR GEOMEAN ([1]; Day 15 Taper): 232.4 mg/mmol
ACR MEAN ([1]; Day 15 Taper): 314.6 mg/mmol
ACR GEOMEAN ([1]; Day 17 Taper): 224.2 mg/mmol
ACR MEAN ([1]; Day 17 Taper): 324.2 mg/mmol
ACR GEOMEAN ([1]; Day 21 Taper): 197.9 mg/mmol
ACR MEAN ([1]; Day 21 Taper): 284.0 mg/mmol
ACR GEOMEAN ([1]; Follow-Up Day 24): 191.6 mg/mmol
ACR MEAN ([1]; Follow-Up Day 24): 250.6 mg/mmol
ACR GEOMEAN ([1]; Follow-Up Day 28): 217.5 mg/mmol
ACR MEAN ([1]; Follow-Up Day 28): 282.6 mg/mmol
ACR GEOMEAN ([1]; Follow-Up Day 49): 191.1 mg/mmol
ACR MEAN ([1]; Follow-Up Day 49): 305.6 mg/mmol
Serum C4 [2]: remained unchanged
